The text below walks through data of patent US11957687B2 (REGENERON PHARMACEUTICALS, INC., priority 2019, dated 2024).

For one data set, the target named is HSD17B13 (Homo sapiens (Human), UniProt Q7Z5P4). Briefly: HSD17B13 enzymatic inhibition assay (150 nM or 50 nM HSD17B13). In kind it is biochemical. To be noted: 50 nM HSD17B13; read-out: Inhibition of 50 nM of HSD17B13 IC50.
The nature of data set [1]: Microsome stability assay, mouse liver microsomes. In kind it is in vitro ADME. To be noted: 1 μM compound, 0.5 mg/mL microsomal protein; for microsomal CLint at 1 h, 1 µM / half-life at 1 h, 1 µM / microsomal CLint at 1 μM / half-life at 1 μM: mouse, mouse liver microsomes, pooled, NADPH, 37° C.; for microsomal CLint at 1 h, 1 µM / microsomal CLint at 1 μM: read-out: Microsome Stability Mouse liver microsomes Cl; for half-life at 1 h, 1 µM / half-life at 1 μM: read-out: Microsome Stability Mouse liver microsomes T½. The protocol: (§1) Compounds of the disclosure were screened in microsome stability assays. For the screen, test compounds were incubated at 37° C. with either human liver microsomes (Corning; #452117) or mouse liver microsomes (XenoTech; #M1000), pooled from multiple donors, at 1 μM in the presence of a NADPH regenerating system at 0.5 mg/mL microsomal protein. Positive controls included in the assay were testosterone (3A4 substrate), propafenone (2D6) and diclofenac (2C9). Samples were removed at different time points (0, 5, 10, 20, 30 and 60 minutes) and immediately mixed with cold acetonitrile containing internal standard (IS, 200 ng/mL tolbutamide and 200 ng/mL labetalol). Test compounds incubated with microsomes for 60 minutes without the NADPH regenerating system was also included. A single point for each test condition (n=1) was obtained, and samples were analyzed by LC/MS/MS. Disappearance of the test compound was assessed based on peak area ratios of analyte/IS (no standard curve).
(In general: Liver microsomes are vesicles of endoplasmic reticulum, rich in cytochrome P450 enzymes.)

A short description of data set [2]: Microsome stability assay, human liver microsomes. To be noted: 1 μM compound, 0.5 mg/mL microsomal protein; for microsomal CLint at 1 h, 1 µM / half-life at 1 h, 1 µM / microsomal CLint at 1 μM / half-life at 1 μM: human, human liver microsomes, pooled, NADPH, 37° C.; for microsomal CLint at 1 h, 1 µM / microsomal CLint at 1 μM: read-out: Microsome Stability Human liver microsomes Cl; for half-life at 1 h, 1 µM / half-life at 1 μM: read-out: Microsome Stability Human liver microsomes T½. Type of data set: in vitro ADME. The protocol:
as §1

Chain of HSD17B13 (Q7Z5P4 other isoform, or with tags, fused parts or gaps): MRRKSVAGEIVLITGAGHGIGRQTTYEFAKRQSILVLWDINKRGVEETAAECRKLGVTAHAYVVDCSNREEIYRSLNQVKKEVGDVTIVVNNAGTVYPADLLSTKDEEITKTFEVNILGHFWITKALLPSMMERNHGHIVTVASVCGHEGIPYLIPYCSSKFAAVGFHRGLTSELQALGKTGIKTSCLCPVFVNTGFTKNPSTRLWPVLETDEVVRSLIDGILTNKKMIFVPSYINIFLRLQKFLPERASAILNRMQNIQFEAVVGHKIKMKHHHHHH

A word on the IC50: it is the concentration that inhibits the measured activity by half. Take `CCCC1CCc2cc(Cl)ccc2C1NC(=O)c1ccc(C(F)(F)F)[nH]c1=O` (stereo not drawn) [Compound 286, N-(6-chloro-2-propyl-1,2,3,4-tetrahydronaphthalen-l-yl)-2-oxo-6-(trifluoromethyl)-1,2-dihydropyridine-3-carboxamide]: the half-maximal inhibitory concentration (IC50) at HSD17B13 was 190 nM. Besides, in data set [1], the “Microsome Stability Mouse liver microsomes % Remaining @60 min” value was determined as 38.20%; the microsomal CLint at 1 h, 1 µM is 29.6 µL/min/mg; the half-life at 1 h, 1 µM was determined as 46.9 min. In data set [2], the “Microsome Stability Human liver microsomes % Remaining @60 min” value came to 27.10%; the microsomal CLint at 1 h, 1 µM amounted to 42.9 µL/min/mg; the half-life at 1 h, 1 µM was found to be 32.3 min.

`CC1CCc2cc(Cl)ccc2C1NC(=O)c1ccc(C(F)(F)F)[nH]c1=O` (centres unmarked) [Compound 293, N-(6-chloro-2-methyl-1,2,3,4-tetrahydronaphthalen-1-yl)-2-oxo-6-(trifluoromethyl)-1,2-dihydropyridine-3-carboxamide]: the IC50 on HSD17B13 came out at 130 nM. Also, in data set [1], the “Microsome Stability Mouse liver microsomes % Remaining @60 min” value stood at 33.80%; the microsomal CLint at 1 h, 1 µM was 37.9 µL/min/mg; the half-life at 1 h, 1 µM was 36.5 min. For the same compound, in data set [2], the “Microsome Stability Human liver microsomes % Remaining @60 min” value was 0.14%; the microsomal CLint at 1 h, 1 µM was determined as 231 µL/min/mg; the half-life at 1 h, 1 µM came out at 6 min.

Consider `Cc1ccc2c(c1)CCC(C)C2NC(=O)c1ccc(C(F)(F)F)[nH]c1=O` (centres unmarked) [Compound 294, N-(2,6-dimethyl-1,2,3,4-tetrahydronaphthalen-1-yl)-2-oxo-6-(trifluoromethyl)-1,2-dihydropyridine-3-carboxamide], for which the IC50 on HSD17B13 turned out to be 90 nM. In data set [1], the “Microsome Stability Mouse liver microsomes % Remaining @60 min” value came out at 33.80%; the microsomal CLint at 1 h, 1 µM came out at 33.4 µL/min/mg; the half-life at 1 h, 1 µM was determined as 41.5 min. Besides, in data set [2], the “Microsome Stability Human liver microsomes % Remaining @60 min” value was found to be 0.10%; the microsomal CLint at 1 h, 1 µM was 643 µL/min/mg; the half-life at 1 h, 1 µM is 2.15 min.

As for `CCC1Cc2cc(OC)ccc2C1NC(=O)c1ccc(C(F)(F)F)[nH]c1=O` (centres unmarked) [Compound 295, N-(2-ethyl-5-methoxy-2,3-dihydro-1H-inden-1-yl)-2-oxo-6-(trifluoromethyl)-1,2-dihydropyridine-3-carboxamide], the concentration for half-maximal inhibition (IC50) on HSD17B13 is 100 nM. Besides, in data set [1], the “Microsome Stability Mouse liver microsomes % Remaining @60 min” value is given as 69%; the microsomal CLint at 1 h, 1 µM stood at 12.7 µL/min/mg; the half-life at 1 h, 1 µM came to 110 min. Also, in data set [2], the “Microsome Stability Human liver microsomes % Remaining @60 min” value worked out at 1%; the microsomal CLint at 1 h, 1 µM stood at 221 µL/min/mg; the half-life at 1 h, 1 µM was found to be 6.26 min.

For `CCC1CCc2cc(Cl)ccc2C1NC(=O)c1ccc(C(F)(F)F)[nH]c1=O` (centres unmarked) [Compound 297, N-(6-chloro-2-ethyl-1,2,3,4-tetrahydronaphthalen-1-yl)-2-oxo-6-(trifluoromethyl)-1,2-dihydropyridine-3-carboxamide], the 50% inhibitory concentration (IC50) at HSD17B13 stood at 110 nM. In data set [1], the “Microsome Stability Mouse liver microsomes % Remaining @60 min” value is 36.10%; the microsomal CLint at 1 h, 1 µM amounted to 35.4 µL/min/mg; the half-life at 1 h, 1 µM worked out at 39.1 min. Besides, in data set [2], the “Microsome Stability Human liver microsomes % Remaining @60 min” value was 1.24%; the microsomal CLint at 1 h, 1 µM worked out at 149 µL/min/mg; the half-life at 1 h, 1 µM amounted to 9.3 min.

In the case of `Cc1ccc2c(c1)[C@@H](O)CC[C@H]2NC(=O)c1ccc(C(F)(F)F)[nH]c1=O` [Compound 312, N-((1R,4S)-4-hydroxy-6-methyl-1,2,3,4-tetrahydronaphthalen-1-yl)-2-oxo-6-(trifluoromethyl)-1,2-dihydropyridine-3-carboxamide], at HSD17B13, the IC50 came out at 450 nM. Also, in data set [1], the “Microsome Stability Mouse liver microsomes % Remaining @60 min” value is listed as 96.90%, the microsomal CLint at 1 μM was < 9.6 µL/min/mg and the half-life at 1 μM is > 145 min. In data set [2], the “Microsome Stability Human liver microsomes % Remaining @60 min” value was 78.40%, the microsomal CLint at 1 μM was < 9.6 µL/min/mg and the half-life at 1 μM is > 145 min.

Take `CCCC1=Cc2cc(C)ccc2C1NC(=O)c1ccc(C(F)(F)F)[nH]c1=O` (centres unmarked) [Compound 341, N-(5-methyl-2-propyl-1H-inden-1-yl)-2-oxo-6-(trifluoromethyl)-1,2-dihydropyridine-3-carboxamide]: the 50% inhibitory concentration (IC50) on HSD17B13 amounted to 70 nM. In addition, in data set [1], the “Microsome Stability Mouse liver microsomes % Remaining @60 min” value was found to be 54.30%; the microsomal CLint at 1 h, 1 µM came out at 19.4 µL/min/mg; the half-life at 1 h, 1 µM turned out to be 71.3 min. Further, in data set [2], the “Microsome Stability Human liver microsomes % Remaining @60 min” value was 1.70%; the microsomal CLint at 1 h, 1 µM turned out to be 132 µL/min/mg; the half-life at 1 h, 1 µM is 10.5 min.

Turning to `CCC[C@H]1Oc2ccc(C)cc2[C@@H]1NC(=O)c1ccc(C(F)(F)F)[nH]c1=O` [Compound 353, N-((2R,3S)-5-methyl-2-propyl-2,3-dihydrobenzofuran-3-yl)-2-oxo-6-(trifluoromethyl)-1,2-dihydropyridine-3-carboxamide], the IC50 at HSD17B13 came to 520 nM. In data set [1], the “Microsome Stability Mouse liver microsomes % Remaining @60 min” value turned out to be 28.90%, the microsomal CLint at 1 μM amounted to 41.2 µL/min/mg and the half-life at 1 μM came out at 33.6 min. In data set [2], the “Microsome Stability Human liver microsomes % Remaining @60 min” value is given as 28.20%, the microsomal CLint at 1 μM is 35.4 µL/min/mg and the half-life at 1 μM is 39.1 min.

For the compound `CCC[C@H]1Oc2cc(C)ccc2[C@@H]1NC(=O)c1ccc(C(F)(F)F)[nH]c1=O` [Compound 358, N-((2R,3S)-6-methyl-2-propyl-2,3-dihydrobenzofuran-3-yl)-2-oxo-6-(trifluoromethyl)-1,2-dihydropyridine-3-carboxamide], the IC50 on HSD17B13 was 460 nM. In addition, in data set [1], the “Microsome Stability Mouse liver microsomes % Remaining @60 min” value stood at 1.01%, the microsomal CLint at 1 μM worked out at 154 µL/min/mg and the half-life at 1 μM was 9 min. Besides, in data set [2], the “Microsome Stability Human liver microsomes % Remaining @60 min” value was 1%, the microsomal CLint at 1 μM was 154 µL/min/mg and the half-life at 1 μM came to 9 min.

In the case of `CCC[C@@H]1C[C@@H](NC(=O)c2ccc(C(F)(F)F)[nH]c2=O)c2cc(C)ccc2N1` [Compound 361, N-((2R,4R)-6-methyl-2-propyl-1,2,3,4-tetrahydroquinolin-4-yl)-2-oxo-6-(trifluoromethyl)-1,2-dihydropyridine-3-carboxamide], the IC50 on HSD17B13 amounted to 300 nM. Also, in data set [1], the “Microsome Stability Mouse liver microsomes % Remaining @60 min” value worked out at 52.90%, the microsomal CLint at 1 μM came to 19.2 µL/min/mg and the half-life at 1 μM is 72.3 min. In data set [2], the “Microsome Stability Human liver microsomes % Remaining @60 min” value was 60.50%, the microsomal CLint at 1 μM was determined as 17 µL/min/mg and the half-life at 1 μM is 82 min.

Take `CC[C@@H]1C[C@H](NC(=O)c2ccc(C(F)(F)F)[nH]c2=O)c2ccc(C)cc2N1` [Compound 366, N-((2R,4S)-2-ethyl-7-methyl-1,2,3,4-tetrahydroquinolin-4-yl)-2-oxo-6-(trifluoromethyl)-1,2-dihydropyridine-3-carboxamide]: on HSD17B13, the half-inhibitory concentration (IC50) came to 60 nM. Besides, in data set [1], the “Microsome Stability Mouse liver microsomes % Remaining @60 min” value is 87%, the microsomal CLint at 1 μM is < 9.6 µL/min/mg and the half-life at 1 μM was > 145 min. Further, in data set [2], the “Microsome Stability Human liver microsomes % Remaining @60 min” value was 27.30%, the microsomal CLint at 1 μM came out at 44.2 µL/min/mg and the half-life at 1 μM came to 31.3 min.

On to `CCC[C@@H]1C[C@H](NC(=O)c2ccc(C(F)(F)F)[nH]c2=O)c2ccc(C)cc2N1` [Compound 368, N-((2R,4S)-7-methyl-2-propyl-1,2,3,4-tetrahydroquinolin-4-yl)-2-oxo-6-(trifluoromethyl)-1,2-dihydropyridine-3-carboxamide], for which the IC50 on HSD17B13 was determined as 370 nM. Further, in data set [1], the “Microsome Stability Mouse liver microsomes % Remaining @60 min” value was 56.20%; the microsomal CLint at 1 h, 1 µM amounted to 18.1 µL/min/mg; the half-life at 1 h, 1 µM is 76.4 min. For the same compound, in data set [2], the “Microsome Stability Human liver microsomes % Remaining @60 min” value came to 51.70%; the microsomal CLint at 1 h, 1 µM came to 23.4 µL/min/mg; the half-life at 1 h, 1 µM turned out to be 59.3 min.

As for `CCC[C@@H]1C[C@@H](NC(=O)c2ccc(C(F)(F)F)[nH]c2=O)c2ccc(C)cc2N1` [Compound 369, N-((2R,4R)-7-methyl-2-propyl-1,2,3,4-tetrahydroquinolin-4-yl)-2-oxo-6-(trifluoromethyl)-1,2-dihydropyridine-3-carboxamide], the IC50 at HSD17B13 was found to be 110 nM. In data set [1], the “Microsome Stability Mouse liver microsomes % Remaining @60 min” value turned out to be 95.30%, the microsomal CLint at 1 μM is < 9.6 µL/min/mg and the half-life at 1 μM is > 145 min. In data set [2], the “Microsome Stability Human liver microsomes % Remaining @60 min” value is reported as 35.70%; the microsomal CLint at 1 h, 1 µM came out at 30.8 µL/min/mg; the half-life at 1 h, 1 µM is 45 min.

Take `Cc1ccc2c(c1)[C@H](NC(=O)c1ccc(C(F)(F)F)[nH]c1=O)C[C@@H](C)N2` [Compound 370, N-((2R,4R)-2,6-dimethyl-1,2,3,4-tetrahydroquinolin-4-yl)-2-oxo-6-(trifluoromethyl)-1,2-dihydropyridine-3-carboxamide]: at HSD17B13, the 50% inhibitory concentration (IC50) came to 270 nM. Also, in data set [1], the “Microsome Stability Mouse liver microsomes % Remaining @60 min” value was found to be 99.10%, the microsomal CLint at 1 μM is < 9.6 µL/min/mg and the half-life at 1 μM was > 145 min. Also, in data set [2], the “Microsome Stability Human liver microsomes % Remaining @60 min” value amounted to 86.70%, the microsomal CLint at 1 μM is < 9.6 µL/min/mg and the half-life at 1 μM is > 145 min.
